Key:
Details in all cases: exposure time: 90 min
1309 [1] = donor line of iPSC-derived cardiomyocytes; experiment: POD (EC05) for decrease in beat frequency (negative chronotrope) vs vehicle; higher = less potent (higher point of departure)
Procedure: (§1)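 Human iPSC-derived cardiomyocytes from 16 donors were exposed for 90 min at 37 °C to each PFAS at 0.1, 1, 10 and 100 µM in 0.5% DMSO, 384-well plates. Kinetic Ca2+ flux (FLIPR) and Hoechst nuclei counts were normalised to vehicle wells and fitted with a hierarchical Bayesian Hill model to give donor-specific PODs: EC05 for beat-rate increase or decrease and for decay-to-rise ratio increase (QT proxy), EC95 for peak-frequency loss (asystole), EC10 for total cell number loss. 0.03 µM is the lower bound.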

1368 = donor line of iPSC-derived cardiomyocytes; experiment: as above
Procedure: as §1

30145 = donor line of iPSC-derived cardiomyocytes; experiment: as above
Procedure: as §1

20084 = donor line of iPSC-derived cardiomyocytes; experiment: as above
Procedure: as §1

1518 [2] = donor line of iPSC-derived cardiomyocytes; experiment: as above
Procedure: as §1

1535 = donor line of iPSC-derived cardiomyocytes; experiment: as above
Procedure: as §1

1565 [3] = donor line of iPSC-derived cardiomyocytes; experiment: as above
Procedure: as §1

1118 [4] = donor line of iPSC-derived cardiomyocytes; experiment: as above
Procedure: as §1

1516 [5] = donor line of iPSC-derived cardiomyocytes; experiment: as above
Procedure: as §1

1531 [6] = donor line of iPSC-derived cardiomyocytes; experiment: as above
Procedure: as §1

20032 = donor line of iPSC-derived cardiomyocytes; experiment: as above
Procedure: as §1

30171 = donor line of iPSC-derived cardiomyocytes; experiment: as above
Procedure: as §1

11235 = donor line of iPSC-derived cardiomyocytes; experiment: as above
Procedure: as §1

1309 [7] = experiment: POD (EC95) for loss of peak frequency (asystole) vs vehicle; higher = less potent (higher point of departure)
Outline: (§2)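 Points of departure specific to each donor were obtained from hierarchical Bayesian Hill fits to vehicle-normalised beat frequency, decay-to-rise ratio or peak frequency. Thresholds were set at 5% change, or 95% loss in the case of peak frequency. The cells were human iPSC-derived cardiomyocytes from 16 donors, exposed for 90 min at 37 °C to 0.1, 1, 10 and 100 µM (final, 0.5% DMSO), with Ca2+ flux read on a FLIPR Tetra before and after exposure.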

1518 [8] = experiment: as above
Outline: as §2

1565 [9] = experiment: as above
Outline: as §2

1118 [10] = experiment: as above
Outline: as §2

1516 [11] = experiment: as above
Outline: as §2

1531 [12] = experiment: as above
Outline: as §2

1392 = donor line of iPSC-derived cardiomyocytes; experiment: as above
Outline: as §2

Structure (SMILES)	POD vs vehicle 1309 [1]	POD vs vehicle 1368	POD vs vehicle 30145	POD vs vehicle 20084	POD vs vehicle 1518 [2]	POD vs vehicle 1535	POD vs vehicle 1565 [3]	POD vs vehicle 1118 [4]	POD vs vehicle 1516 [5]	POD vs vehicle 1531 [6]	POD vs vehicle 20032	POD vs vehicle 30171	POD vs vehicle 11235	POD vs vehicle 1309 [7]	POD vs vehicle 1518 [8]	POD vs vehicle 1565 [9]	POD vs vehicle 1118 [10]	POD vs vehicle 1516 [11]	POD vs vehicle 1531 [12]	POD vs vehicle 1392
O=S(=O)(O)C(F)(F)C(F)(F)C(F)(F)C(F)(F)F [Perfluorobutanesulfonic_acid]	> 100 µM	> 100 µM	> 100 µM	> 100 µM	> 100 µM	> 100 µM	> 100 µM	> 100 µM	29.7 µM	> 100 µM	> 100 µM	73.6 µM	41.4 µM	> 100 µM	> 100 µM	> 100 µM	> 100 µM	> 100 µM	> 100 µM	> 100 µM
OCC(F)(F)OC(F)(F)C(F)(F)OC(F)(F)C(F)(F)OC(F)(F)F [Fluorinated_triethylene_glycol_monomethyl_ether]	> 100 µM	> 100 µM	> 100 µM	> 100 µM	> 100 µM	> 100 µM	> 100 µM	2.52 µM	> 100 µM	> 100 µM	> 100 µM	> 100 µM	> 100 µM	> 100 µM	> 100 µM	> 100 µM	9.61 µM	> 100 µM	> 100 µM	> 100 µM
OCCC(F)(F)C(F)(F)C(F)(F)C(F)(F)C(F)(F)C(F)(F)F [6:2 Fluorotelomer alcohol]	> 100 µM	> 100 µM	> 100 µM	> 100 µM	> 100 µM	> 100 µM	> 100 µM	31.5 µM	> 100 µM	> 100 µM	> 100 µM	> 100 µM	> 100 µM	> 100 µM	> 100 µM	> 100 µM	> 100 µM	> 100 µM	> 100 µM	> 100 µM
NC(=O)C(F)(F)C(F)(F)C(F)(F)F [Heptafluorobutyramide]	> 100 µM	> 100 µM	> 100 µM	> 100 µM	> 100 µM	> 100 µM	> 100 µM	> 100 µM	> 100 µM	> 100 µM	> 100 µM	> 100 µM	> 100 µM	> 100 µM	> 100 µM	> 100 µM	> 100 µM	> 100 µM	> 100 µM	> 100 µM
O=C(O)C(F)(F)C(F)(F)C(F)(F)C(F)(F)C(F)(F)C(F)(F)C(F)(F)F [Perfluorooctanoic_acid]	11.1 µM	> 100 µM	> 100 µM	> 100 µM	92.7 µM	41.8 µM	> 100 µM	7.02 µM	9 µM	49 µM	51.5 µM	7.04 µM	5.14 µM	> 100 µM	> 100 µM	> 100 µM	> 100 µM	> 100 µM	> 100 µM	> 100 µM
O=C(O)C(F)(F)C(F)(F)C(F)(F)C(F)(F)C(F)(F)C(F)(F)F [Perfluoroheptanoic_acid]	> 100 µM	> 100 µM	> 100 µM	> 100 µM	> 100 µM	> 100 µM	> 100 µM	39.8 µM	68.1 µM	78.7 µM	> 100 µM	> 100 µM	20.6 µM	> 100 µM	> 100 µM	> 100 µM	> 100 µM	> 100 µM	> 100 µM	> 100 µM
O=S(=O)(O)C(F)(F)C(F)(F)C(F)(F)C(F)(F)C(F)(F)C(F)(F)F [Perfluorohexanesulfonic_acid]	78.1 µM	> 100 µM	> 100 µM	> 100 µM	> 100 µM	43.4 µM	81.7 µM	19.6 µM	17.6 µM	24.5 µM	84.5 µM	46.1 µM	26.5 µM	> 100 µM	> 100 µM	> 100 µM	> 100 µM	> 100 µM	> 100 µM	> 100 µM
O=C(O)C(F)(F)C(F)(F)C(F)(F)C(F)(F)C(=O)O [Octafluoroadipic_acid]	> 100 µM	> 100 µM	> 100 µM	> 100 µM	> 100 µM	> 100 µM	> 100 µM	> 100 µM	> 100 µM	> 100 µM	> 100 µM	> 100 µM	> 100 µM	> 100 µM	> 100 µM	> 100 µM	> 100 µM	> 100 µM	> 100 µM	> 100 µM
O=S(=O)(O)CCC(F)(F)C(F)(F)C(F)(F)C(F)(F)C(F)(F)C(F)(F)C(F)(F)C(F)(F)F [8:2 Fluorotelomer sulfonic acid]	33.9 µM	> 100 µM	15.3 µM	0.768 µM	65.7 µM	60.9 µM	9.96 µM	> 100 µM	6.6 µM	1.06 µM	34.5 µM	6.39 µM	0.121 µM	> 100 µM	> 100 µM	> 100 µM	> 100 µM	> 100 µM	16.5 µM	> 100 µM
O=P(O)(O)CCC(F)(F)C(F)(F)C(F)(F)C(F)(F)C(F)(F)C(F)(F)C(F)(F)C(F)(F)F [((Perfluorooctyl)ethyl)phosphonic_acid]	> 100 µM	> 100 µM	> 100 µM	> 100 µM	> 100 µM	> 100 µM	> 100 µM	> 100 µM	> 100 µM	> 100 µM	> 100 µM	> 100 µM	> 100 µM	> 100 µM	> 100 µM	> 100 µM	> 100 µM	> 100 µM	> 100 µM	> 100 µM
O=C(O)C(F)(F)C(F)(F)C(F)(F)C(F)(F)C(F)(F)C(F)(F)C(F)(F)C(F)(F)F [Perfluorononanoic_acid]	35.2 µM	> 100 µM	> 100 µM	> 100 µM	51.1 µM	31.8 µM	> 100 µM	11 µM	20.4 µM	40.2 µM	27.9 µM	7.86 µM	2.8 µM	> 100 µM	> 100 µM	> 100 µM	99.4 µM	> 100 µM	> 100 µM	> 100 µM
N=C(N)C(F)(F)C(F)(F)C(F)(F)C(F)(F)C(F)(F)C(F)(F)C(F)(F)F [Perfluorooctanamidine]	> 100 µM	> 100 µM	> 100 µM	> 100 µM	> 100 µM	2.86 µM	> 100 µM	0.128 µM	> 100 µM	> 100 µM	> 100 µM	> 100 µM	0.499 µM	> 100 µM	> 100 µM	> 100 µM	25.6 µM	> 100 µM	> 100 µM	> 100 µM
O=C(O)C=C(C(F)(F)F)C(F)(F)F [3,3-Bis(trifluoromethyl)-2-propenoic_acid]	> 100 µM	> 100 µM	> 100 µM	> 100 µM	> 100 µM	> 100 µM	> 100 µM	> 100 µM	> 100 µM	> 100 µM	> 100 µM	> 100 µM	> 100 µM	> 100 µM	> 100 µM	> 100 µM	> 100 µM	> 100 µM	> 100 µM	> 100 µM
O=C(O)C(F)(F)C(F)(F)C(F)(F)C(F)(F)F [Perfluoropentanoic_acid]	> 100 µM	> 100 µM	> 100 µM	> 100 µM	> 100 µM	> 100 µM	> 100 µM	> 100 µM	> 100 µM	> 100 µM	> 100 µM	> 100 µM	> 100 µM	> 100 µM	> 100 µM	> 100 µM	> 100 µM	> 100 µM	> 100 µM	> 100 µM
O=C(O)C(F)(F)C(F)(F)C(F)F [2,2,3,3,4,4-Hexafluorobutanoic_acid]	> 100 µM	> 100 µM	> 100 µM	> 100 µM	> 100 µM	> 100 µM	> 100 µM	> 100 µM	> 100 µM	> 100 µM	> 100 µM	> 100 µM	> 100 µM	> 100 µM	> 100 µM	> 100 µM	> 100 µM	> 100 µM	> 100 µM	> 100 µM
OCC(F)(F)C(F)(F)C(F)(F)F [Heptafluorobutanol]	> 100 µM	> 100 µM	> 100 µM	> 100 µM	> 100 µM	> 100 µM	> 100 µM	> 100 µM	> 100 µM	> 100 µM	> 100 µM	> 100 µM	> 100 µM	> 100 µM	> 100 µM	> 100 µM	> 100 µM	> 100 µM	> 100 µM	> 100 µM

Source: the supplement of paper PMC11368000
